According to the NIST ThermoML archive (doi:10.1016/j.tca.2008.05.002):

Test: molar heat capacity at saturation pressure
Details: Small (less than 1 g) adiabatic calorimetry

CCCCn1cc[n+](C)c1.O=[N+]([O-])[O-] [1-butyl-3-methylimidazolium nitrate]
Details | molar heat capacity [J/K/mol]
223.56 K, Crystal 4 | 239.25
224.66 K, Crystal 4 | 240.26
225.64 K, Crystal 4 | 241.27
226.74 K, Crystal 4 | 242.07
227.72 K, Crystal 4 | 243.28
228.81 K, Crystal 4 | 244.08
229.79 K, Crystal 4 | 245.29
230.88 K, Crystal 4 | 246.1
231.86 K, Crystal 4 | 247.3
232.95 K, Crystal 4 | 248.31
233.92 K, Crystal 4 | 249.32
235.01 K, Crystal 4 | 250.32
235.97 K, Crystal 4 | 251.53
237.06 K, Crystal 4 | 252.54
238.03 K, Crystal 4 | 253.54
239.1 K, Crystal 4 | 254.75
239.2 K, Crystal 4 | 254.95
240.07 K, Crystal 4 | 255.55
241.14 K, Crystal 4 | 256.96
241.7 K, Crystal 4 | 257.57
242.11 K, Crystal 4 | 257.77
243.17 K, Crystal 4 | 259.18
244.08 K, Crystal 4 | 260.18
244.15 K, Crystal 4 | 259.98
245.2 K, Crystal 4 | 261.39
246.17 K, Crystal 4 | 262.6
246.45 K, Crystal 4 | 262.8
247.22 K, Crystal 4 | 263.8
248.19 K, Crystal 4 | 265.01
248.81 K, Crystal 4 | 265.61
249.23 K, Crystal 4 | 266.42
250.2 K, Crystal 4 | 267.63
251.15 K, Crystal 4 | 268.43
251.23 K, Crystal 4 | 269.04
252.21 K, Crystal 4 | 270.04
253.23 K, Crystal 4 | 271.45
253.48 K, Crystal 4 | 271.45
254.2 K, Crystal 4 | 272.66
255.22 K, Crystal 4 | 274.27
255.8 K, Crystal 4 | 274.87
256.19 K, Crystal 4 | 275.68
257.2 K, Crystal 4 | 277.29
258.1 K, Crystal 4 | 278.49
258.18 K, Crystal 4 | 278.49
259.18 K, Crystal 4 | 280.3
260.15 K, Crystal 4 | 281.51
260.4 K, Crystal 4 | 282.11
261.14 K, Crystal 4 | 283.32
262.11 K, Crystal 4 | 284.53
262.67 K, Crystal 4 | 286.14
263.1 K, Crystal 4 | 286.54
264.07 K, Crystal 4 | 287.95
264.94 K, Crystal 4 | 289.96
265.05 K, Crystal 4 | 289.56
266.02 K, Crystal 4 | 291.37
267 K, Crystal 4 | 293.79
267.19 K, Crystal 4 | 294.19
267.95 K, Crystal 4 | 295.4
268.93 K, Crystal 4 | 297.81
269.43 K, Crystal 4 | 299.02
269.88 K, Crystal 4 | 299.82
270.85 K, Crystal 4 | 302.44
271.65 K, Crystal 4 | 304.85
271.78 K, Crystal 4 | 304.65
271.8 K, Liquid | 345.1
272.76 K, Crystal 4 | 307.47
273.68 K, Crystal 4 | 310.69
273.85 K, Crystal 4 | 312.1
274.46 K, Liquid | 345.9
274.66 K, Crystal 4 | 313.71
275.56 K, Crystal 4 | 318.94
276.02 K, Crystal 4 | 318.54
276.35 K, Crystal 4 | 310.08
277.02 K, Liquid | 346.71
277.33 K, Crystal 4 | 355.76
277.73 K, Crystal 4 | 345.5
277.82 K, Crystal 4 | 609.71
278.14 K, Crystal 4 | 322.56
278.16 K, Crystal 4 | 408.68
278.25 K, Crystal 4 | 455.57
278.82 K, Crystal 3 | 545.72
279.03 K, Crystal 3 | 470.06
279.41 K, Liquid | 347.51
279.47 K, Crystal 3 | 414.92
279.88 K, Crystal 3 | 382.53
280.31 K, Crystal 3 | 308.07
280.95 K, Crystal 3 | 310.08
281.81 K, Liquid | 348.32
281.84 K, Crystal 3 | 313.91
281.86 K, Crystal 3 | 314.31
282.47 K, Crystal 3 | 319.54
283.34 K, Crystal 3 | 324.98
283.95 K, Crystal 3 | 333.43
284.03 K, Crystal 3 | 333.23
284.21 K, Liquid | 349.12
284.81 K, Crystal 3 | 341.48
285.42 K, Crystal 3 | 355.56
286.1 K, Crystal 3 | 372.26
286.25 K, Crystal 3 | 363.41
286.61 K, Liquid | 349.93
286.8 K, Crystal 3 | 390.78
287.64 K, Crystal 3 | 372.26
288.03 K, Crystal 3 | 432.83
288.12 K, Crystal 2 | 417.54
289.01 K, Liquid | 350.73
289.03 K, Crystal 2 | 359.38
289.45 K, Crystal 2 | 366.43
289.95 K, Crystal 2 | 362.2
290.42 K, Crystal 2 | 367.43
290.84 K, Crystal 2 | 370.25
291.41 K, Liquid | 351.54
291.75 K, Crystal 2 | 425.39
291.98 K, Crystal 2 | 378.5
292.18 K, Crystal 2 | 416.33
293 K, Crystal 1 | 432.03
293.5 K, Crystal 1 | 380.51
293.81 K, Liquid | 352.34
293.98 K, Crystal 1 | 378.1
294.33 K, Crystal 1 | 377.9
294.87 K, Crystal 1 | 383.53
295.97 K, Crystal 1 | 397.01
296.14 K, Crystal 1 | 399.03
296.21 K, Liquid | 353.15
296.66 K, Crystal 1 | 410.29
297.89 K, Crystal 1 | 432.63
298.32 K, Crystal 1 | 442.09
298.61 K, Liquid | 353.95
298.79 K, Crystal 1 | 458.19
299.7 K, Crystal 1 | 486.36
300.51 K, Crystal 1 | 519.76
300.77 K, Crystal 1 | 538.67
301.01 K, Liquid | 354.76
301.36 K, Crystal 1 | 572.08
302.38 K, Crystal 1 | 652.97
302.52 K, Crystal 1 | 675.3
302.83 K, Crystal 1 | 708.51
303.42 K, Liquid | 355.76
303.87 K, Crystal 1 | 876.13
303.98 K, Crystal 1 | 909.13
304.08 K, Crystal 1 | 926.83
305.82 K, Liquid | 356.57
308.22 K, Liquid | 357.37
310.14 K, Liquid | 358.38
310.4 K, Liquid | 358.58
310.62 K, Liquid | 358.38
311.19 K, Liquid | 358.58
312.54 K, Liquid | 359.18
313.02 K, Liquid | 358.98
313.34 K, Liquid | 359.18
314.75 K, Liquid | 359.99
315.42 K, Liquid | 360.19
315.54 K, Liquid | 359.99
316.76 K, Liquid | 360.59
317.74 K, Liquid | 360.99
317.82 K, Liquid | 360.99
318.76 K, Liquid | 361.6
319.94 K, Liquid | 361.8
320.21 K, Liquid | 362
320.76 K, Liquid | 362.4
322.14 K, Liquid | 362.81
322.61 K, Liquid | 363.01
322.77 K, Liquid | 363.41
324.34 K, Liquid | 363.61
324.77 K, Liquid | 364.01
325.01 K, Liquid | 363.81
326.54 K, Liquid | 364.62
326.77 K, Liquid | 364.62
327.41 K, Liquid | 365.02
328.73 K, Liquid | 365.22
328.78 K, Liquid | 365.42
329.81 K, Liquid | 365.82
330.78 K, Liquid | 366.43
330.93 K, Liquid | 366.23
332.2 K, Liquid | 366.83
332.78 K, Liquid | 367.23
333.12 K, Liquid | 367.03
334.6 K, Liquid | 367.84
334.78 K, Liquid | 368.24
335.32 K, Liquid | 367.84
336.78 K, Liquid | 368.84
336.99 K, Liquid | 368.64
337.51 K, Liquid | 369.04
338.78 K, Liquid | 369.65
339.71 K, Liquid | 369.65
340.78 K, Liquid | 370.45
341.9 K, Liquid | 370.45
342.78 K, Liquid | 371.46
344.09 K, Liquid | 371.46
344.78 K, Liquid | 372.26
346.29 K, Liquid | 372.46
346.78 K, Liquid | 373.27
348.48 K, Liquid | 373.47
348.78 K, Liquid | 374.07
350.68 K, Liquid | 374.28
350.78 K, Liquid | 374.88
352.78 K, Liquid | 375.68
352.87 K, Liquid | 375.48
354.78 K, Liquid | 376.69
355.06 K, Liquid | 376.29
356.78 K, Liquid | 377.7
357.25 K, Liquid | 377.49
358.78 K, Liquid | 378.3
359.44 K, Liquid | 378.3
360.77 K, Liquid | 379.31
361.63 K, Liquid | 379.31
363.82 K, Liquid | 380.11
366.01 K, Liquid | 381.12
368.19 K, Liquid | 382.32
